Assay results published in ChEMBL document CHEMBL4622885, “Rational design, synthesis and biological evaluation of novel multitargeting anti-AD iron chelators with potent MAO-B inhibitory and antioxidant activity” (Bioorg Med Chem, 2020).

Assays:
[1] = Dissociation constant, pKa1 of compound for protonation of the 4-oxo group in 0.1 M KCl incubated for 1 min by UV-pH titration based spectrophotometric analysis; assay type: physicochemical
[2] = Dissociation constant, pKa2 of compound for dissociation of the 3-hydroxyl group in 0.1 M KCl incubated for 1 min by UV-pH titration based spectrophotometric analysis; assay type: physicochemical
[3] = biological target: T1, Amine oxidase [flavin-containing] B (Homo sapiens, UniProt P27338); assay: Inhibition of human recombinant MAO-B expressed in baculovirus infected BTI insect cells using kynuramine as substrate at 100 nM incubated for 10 mins followed by substrate addition by fluorimetric analysis relative to control
T1 sequence (P27338 whole entry): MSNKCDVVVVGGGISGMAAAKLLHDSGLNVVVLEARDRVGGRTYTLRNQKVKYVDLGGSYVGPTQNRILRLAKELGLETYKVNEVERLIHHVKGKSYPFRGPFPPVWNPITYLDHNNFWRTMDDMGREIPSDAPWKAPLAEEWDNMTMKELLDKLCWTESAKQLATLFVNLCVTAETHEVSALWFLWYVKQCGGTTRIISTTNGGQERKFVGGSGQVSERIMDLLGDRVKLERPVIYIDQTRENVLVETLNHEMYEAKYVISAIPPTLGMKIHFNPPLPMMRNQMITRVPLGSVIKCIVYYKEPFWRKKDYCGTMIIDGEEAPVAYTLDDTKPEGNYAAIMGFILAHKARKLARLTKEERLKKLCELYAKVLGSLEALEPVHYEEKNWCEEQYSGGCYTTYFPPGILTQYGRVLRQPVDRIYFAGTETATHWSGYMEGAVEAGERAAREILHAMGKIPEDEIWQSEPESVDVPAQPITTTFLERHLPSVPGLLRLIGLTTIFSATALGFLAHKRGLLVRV

[4] = biological target: T1, Amine oxidase [flavin-containing] B; assay: Inhibition of human recombinant MAO-B expressed in baculovirus infected BTI insect cells using kynuramine as substrate incubated for 10 mins followed by substrate addition by fluorimetric analysis
[5] = Metal chelating activity assessed as iron chelation
[6] = Metal chelating activity assessed as Fe3+ complex formation by measuring stability constant for FeI in using pre Fe+3 complexed compound (FeCl3) in 0.1 M KCl :DMSO solution UV-pH titration based spectrophotometric analysis
[7] = Metal chelating activity assessed as Fe3+ complex formation by measuring stability constant for Fe(I)2 in using pre Fe+3 complexed compound (FeCl3) in 0.1 M KCl :DMSO solution UV-pH titration based spectrophotometric analysis
[8] = Metal chelating activity assessed as Fe3+ complex formation by measuring stability constant for Fe(I)3 in using pre Fe+3 complexed compound (FeCl3) in 0.1 M KCl :DMSO solution UV-pH titration based spectrophotometric analysis

## Cc1c(O)c(=O)ccn1CCNC(=O)c1cc2cc(O)ccc2oc1=O
[1]
  pKa at 1 min: 3.33
[2]
  pKa at 1 min: 10.1
[3]
  inhibition at 0.1 µM: 46.4%
[4]
  IC50: 188 nM
[5]
  pFe3+: 17.2
[6]
  log(activity): 15.1
[7]
  log(activity): 26.5
[8]
  log(activity): 34.1

## Cc1c(O)c(=O)ccn1CCNC(=O)c1cc2ccc(OCc3ccc(F)cc3)cc2oc1=O
[1]
  pKa at 1 min: 3.27
[2]
  pKa at 1 min: 9.76
[3]
  inhibition at 0.1 µM: 48.1%
[4]
  IC50: 128 nM
[5]
  pFe3+: 17
[6]
  log(activity): 14.2
[7]
  log(activity): 25.1
[8]
  log(activity): 33.5

## Cc1cccc(COc2ccc3cc(C(=O)NCCn4ccc(=O)c(O)c4C)c(=O)oc3c2)c1
[1]
  pKa at 1 min: 3.27
[2]
  pKa at 1 min: 9.72
[3]
  inhibition at 0.1 µM: 44.6%
[4]
  IC50: 144 nM
[5]
  pFe3+: 18.8
[6]
  log(activity): 14.2
[7]
  log(activity): 24.4
[8]
  log(activity): 35.2

## Cc1c(O)c(=O)ccn1CCNC(=O)c1cc2ccc(O)cc2oc1=O
[1]
  pKa at 1 min: 2.75
[2]
  pKa at 1 min: 9.92
[3]
  inhibition at 0.1 µM: 29.5%
[5]
  pFe3+: 17.2
[6]
  log(activity): 13.8
[7]
  log(activity): 25.2
[8]
  log(activity): 34.2

## Cc1c(O)c(=O)ccn1CCNC(=O)c1cc2ccc(OCc3ccc(C(F)(F)F)cc3)cc2oc1=O
[1]
  pKa at 1 min: 3.37
[2]
  pKa at 1 min: 9.83
[3]
  inhibition at 0.1 µM: 47.4%
[4]
  IC50: 119 nM
[5]
  pFe3+: 18.1
[6]
  log(activity): 14
[7]
  log(activity): 25.1
[8]
  log(activity): 34.9

## Cc1c(O)c(=O)ccn1CCC(=O)Nc1cc2ccccc2oc1=O
[1]
  pKa at 1 min: 3.29
[2]
  pKa at 1 min: 9.48
[3]
  inhibition at 0.1 µM: 43.5%
[4]
  IC50: 160 nM
[5]
  pFe3+: 17.6
[6]
  log(activity): 13.8
[7]
  log(activity): 24.8
[8]
  log(activity): 33.3

## Cc1c(O)c(=O)ccn1CCNC(=O)c1cc2ccc(OCc3ccc(C(C)C)cc3)cc2oc1=O
[1]
  pKa at 1 min: 3.18
[2]
  pKa at 1 min: 9.79
[3]
  inhibition at 0.1 µM: 45.7%
[4]
  IC50: 117 nM
[5]
  pFe3+: 19
[6]
  log(activity): 14.6
[7]
  log(activity): 25.6
[8]
  log(activity): 35.6

## Cc1c(O)c(=O)ccn1CCNC(=O)c1cc2ccc(OCc3cc(F)cc(F)c3)cc2oc1=O
[1]
  pKa at 1 min: 3.25
[2]
  pKa at 1 min: 9.78
[3]
  inhibition at 0.1 µM: 47.4%
[4]
  IC50: 125 nM
[5]
  pFe3+: 16.9
[6]
  log(activity): 14.3
[7]
  log(activity): 25
[8]
  log(activity): 33.5

## CCCOc1ccc2cc(C(=O)NCCn3ccc(=O)c(O)c3C)c(=O)oc2c1
[1]
  pKa at 1 min: 3.31
[2]
  pKa at 1 min: 9.75
[3]
  inhibition at 0.1 µM: 45.9%
[4]
  IC50: 135 nM
[5]
  pFe3+: 18.1
[6]
  log(activity): 14.6
[7]
  log(activity): 26
[8]
  log(activity): 34.6

## Cc1c(O)c(=O)ccn1CCNC(=O)c1cc2ccccc2oc1=O
[1]
  pKa at 1 min: 3.22
[2]
  pKa at 1 min: 9.59
[3]
  inhibition at 0.1 µM: 46.9%
[4]
  IC50: 173 nM
[5]
  pFe3+: 17.9
[6]
  log(activity): 14
[7]
  log(activity): 25
[8]
  log(activity): 33.9

## Cc1cccc2cc(C(=O)NCCn3ccc(=O)c(O)c3C)c(=O)oc12
[1]
  pKa at 1 min: 3.3
[2]
  pKa at 1 min: 9.75
[3]
  inhibition at 0.1 µM: 44%
[4]
  IC50: 156 nM
[5]
  pFe3+: 18.7
[6]
  log(activity): 14.4
[7]
  log(activity): 25.8
[8]
  log(activity): 35.2

## O=C(NCCn1ccc(=O)c(O)c1)c1cc2ccccc2oc1=O
[1]
  pKa at 1 min: 3
[2]
  pKa at 1 min: 8.74
[3]
  inhibition at 0.1 µM: 46.1%
[4]
  IC50: 195 nM
[5]
  pFe3+: 18.2
[6]
  log(activity): 12.9
[7]
  log(activity): 23.4
[8]
  log(activity): 31.8

## Cc1c(O)c(=O)ccn1CCNC(=O)c1cc2cccc(OCc3ccccc3)c2oc1=O
[1]
  pKa at 1 min: 3.28
[2]
  pKa at 1 min: 9.58
[3]
  inhibition at 0.1 µM: 46.5%
[4]
  IC50: 131 nM
[5]
  pFe3+: 17.2
[6]
  log(activity): 14
[7]
  log(activity): 25.4
[8]
  log(activity): 32.9

## COc1ccc2oc(=O)c(C(=O)NCCn3ccc(=O)c(O)c3C)cc2c1
[1]
  pKa at 1 min: 3.27
[2]
  pKa at 1 min: 9.58
[3]
  inhibition at 0.1 µM: 38.5%
[5]
  pFe3+: 17.1
[6]
  log(activity): 14.2
[7]
  log(activity): 25.3
[8]
  log(activity): 32.8

## Cc1c(O)c(=O)ccn1C [DEFERIPRONE]
[1]
  pKa at 1 min: 3.61 to 3.67
[2]
  pKa at 1 min: 9.78 to 9.84
[5]
  pFe3+: 20.7
[6]
  log(activity): 14.4 to 15.1
[7]
  log(activity): 25.7 to 27.4
[8]
  log(activity): 34.2 to 37.4

## Cc1c(O)c(=O)ccn1CCNC(=O)c1cc2ccc(OCc3ccccc3)cc2oc1=O
[1]
  pKa at 1 min: 3.25
[2]
  pKa at 1 min: 9.7
[3]
  inhibition at 0.1 µM: 30.1%
[5]
  pFe3+: 16.9
[6]
  log(activity): 14.1
[7]
  log(activity): 24.9
[8]
  log(activity): 33.2

## Cc1c(O)c(=O)ccn1CCNC(=O)c1cc2cccc(O)c2oc1=O
[1]
  pKa at 1 min: 3.35
[2]
  pKa at 1 min: 9.98
[3]
  inhibition at 0.1 µM: 46.2%
[4]
  IC50: 158 nM
[5]
  pFe3+: 17.6
[6]
  log(activity): 14.4
[7]
  log(activity): 26
[8]
  log(activity): 34.8

## CCOc1ccc2cc(C(=O)NCCn3ccc(=O)c(O)c3C)c(=O)oc2c1
[1]
  pKa at 1 min: 3.3
[2]
  pKa at 1 min: 9.75
[3]
  inhibition at 0.1 µM: 46.2%
[4]
  IC50: 108 nM
[5]
  pFe3+: 18.2
[6]
  log(activity): 14.2
[7]
  log(activity): 25.6
[8]
  log(activity): 34.7

## Cc1ccc2oc(=O)c(C(=O)NCCn3ccc(=O)c(O)c3C)cc2c1
[1]
  pKa at 1 min: 3.33
[2]
  pKa at 1 min: 9.67
[3]
  inhibition at 0.1 µM: 34.8%
[5]
  pFe3+: 17.9
[6]
  log(activity): 14.1
[7]
  log(activity): 25.4
[8]
  log(activity): 34.1

## COc1ccc2cc(C(=O)NCCn3cc(O)c(=O)cc3C)c(=O)oc2c1
[1]
  pKa at 1 min: 3.34
[2]
  pKa at 1 min: 9.07
[3]
  inhibition at 0.1 µM: 35.5%
[5]
  pFe3+: 18.5
[6]
  log(activity): 13.9
[7]
  log(activity): 24.5
[8]
  log(activity): 33

## Cc1c(O)c(=O)ccn1CCNC(=O)c1cc2ccc(OCc3cccc(Cl)c3)cc2oc1=O
[1]
  pKa at 1 min: 3.26
[2]
  pKa at 1 min: 9.56
[3]
  inhibition at 0.1 µM: 47.4%
[4]
  IC50: 136 nM
[5]
  pFe3+: 18.6
[6]
  log(activity): 14.4
[7]
  log(activity): 24.9
[8]
  log(activity): 34.5

## Cc1c(O)c(=O)ccn1CCNC(=O)c1cc2ccc(OCc3ccc(C(C)(C)C)cc3)cc2oc1=O
[1]
  pKa at 1 min: 3.17
[2]
  pKa at 1 min: 9.73
[3]
  inhibition at 0.1 µM: 45.3%
[4]
  IC50: 122 nM
[5]
  pFe3+: 20.2
[6]
  log(activity): 14.8
[7]
  log(activity): 26.1
[8]
  log(activity): 36.6

## Cc1ccc2cc(C(=O)NCCn3ccc(=O)c(O)c3C)c(=O)oc2c1
[1]
  pKa at 1 min: 3.32
[2]
  pKa at 1 min: 9.75
[3]
  inhibition at 0.1 µM: 44.3%
[4]
  IC50: 163 nM
[5]
  pFe3+: 17.8
[6]
  log(activity): 14.2
[7]
  log(activity): 25.4
[8]
  log(activity): 34.3

## Cc1c(O)c(=O)ccn1CCNC(=O)c1cc2ccc(OCC3CCCCC3)cc2oc1=O
[1]
  pKa at 1 min: 3.29
[2]
  pKa at 1 min: 9.76
[3]
  inhibition at 0.1 µM: 44.6%
[5]
  pFe3+: 18.1
[6]
  log(activity): 14.3
[7]
  log(activity): 25.1
[8]
  log(activity): 34.7

## COc1ccc2cc(C(=O)NCCn3ccc(=O)c(O)c3)c(=O)oc2c1
[1]
  pKa at 1 min: 3.07
[2]
  pKa at 1 min: 8.74
[3]
  inhibition at 0.1 µM: 31.3%
[5]
  pFe3+: 18.3
[6]
  log(activity): 12.9
[7]
  log(activity): 23.4
[8]
  log(activity): 31.9
